In US20240216369A1, “THE USE OF A SPLICING MODULATOR FOR A TREATMENT SLOWING PROGRESSION OF HUNTINGTON'S DISEASE” (Novartis AG, priority 2019, published 2024):

Legend:
mutant HTT protein [1] = assay: Mouse population PK/PD turnover model based on BacHD mouse; assay type: in vivo; details: for Imax: set to 1
Description: For the development of the PK/PD relationship, the concentration of mutant HTT protein in the brain of BacHD mice and its changes after branaplam administration were used as PD biomarker (Example 1a). To increase the data base, all concentrations of the mutant HTT protein were pooled. The correlation between branaplam concentrations in plasma and the mutant HTT protein concentrations in the brain were investigated by means of a turnover model (described below) considering the inhibition of the production of mutant HTT protein in the brain. Since mutant HTT protein was determined in brain cortex and brain striatum, the PK/PD correlations were executed for both brain parts separately. […] For the execution of the population PK/PD model, the PK parameters (presented in Table 6) from the previously described population PK model were fixed and the PD parameters were calculated. The Monolix software (Version 2018R1, Lixoft) and its turnover model described in the library (pkpd/oral1_2cpt_SigmoidindirectModelinhibitionKin_TlagkaCIV1QV2R0koutimaxIC50gamma) was used to determine the PD parameters in the mouse. The PD part of the model can be described by the following equation:
mutant HTT protein change over time=kin*(1−I max*max(Cc,0)^gamma/(max(Cc,0)^gamma+IC50^gamma))−kout*R • kin: synthesis rate of mutant HTT protein • kout: degradation rate of mutant HTT protein • Imax: maximum inhibition effect • IC50: half-maximum inhibitory concentration • gamma: sigmoidicity of the drug effect • max(Cc,0): branaplam plasma concentration • R: mutant HTT protein level at a given time with baseline R0 of 1 since only relative changes to the baseline were determined in the BacHD mouse model, Example 1a
It has to be noted, that the maximum inhibitory effect was set to 1 and the mutant HTT protein baseline, R0, was set to 1 since only relative changes to the baseline were determined in the BacHD mouse (Example 1a).

mutant HTT protein [2] = assay: Repeat dose timecourse study in BacHD mice: HTT protein (Western blot); assay type: in vivo
Description: At 72 h 168 h, 240 h and 336 h (branaplam 24 mg/kg) after the last treatment (vehicle or 24 mg/kg branaplam for 1 week or 3 weeks), blood, CSF, and tissue samples were obtained for PK and PD analysis. To collect CSF, mice were placed in a rodent anesthesia induction chamber where they are exposed to 4-5% isoflurane in 100% oxygen carrier gas. Once an appropriate plane of anesthesia was achieved, they were moved to a nose cone so that maintenance levels of isoflurane (1-3%) could be delivered throughout the procedure. The dorsal aspect of their cervical and occipital region was surgically prepped to visualize the dura mater under a microscope. A glass micropipette attached to a micromanipulator was introduced to the cisterna magna via a puncture through the dura mater at a point where no vasculature was visualized, and CSF was allowed to flow into the micropipette via capillary action. After approximately 15-30 minutes, the micropipette was removed from the cisterna magna, the CSF sample was transferred into Eppendorf tubes, flash frozen in liquid nitrogen, and stored at −80° C.
Following CSF collection, mice were kept under anesthesia with isoflurane. Blood was obtained via submandibular vein bleeds and collected for RNA extraction (PD analysis) using RNAprotect Animal Blood Tubes, and plasma (PK analysis) using K2EDTA coated tubes. Cells were removed from plasma by centrifugation for 10 min at 2000×g at 4° C., and plasma samples were stored at −80° C. Following blood collection, mice were given a lethal dose of ketamine/xylazine ([…] of a 10 mg:1 mg), and perfused with 18 mL of 0.9% cold saline mixed with 2 mL of RNAlater (Ambion) solution for tissue collection. Liver, skeletal muscle, brain striatum, brain cortex, hemibrain and cerebellum samples were flash frozen in liquid nitrogen and stored at −80° C.
Snap-frozen mouse tissue samples were homogenized in RIPA buffer with protease and phosphatase inhibitor (Thermo Scientific) by Precellys at 6000 rpm for 40 sec. Supernatant was obtained by centrifugation for 20 min at 13,000 rpm at 4° C. Total protein concentration was quantified using the BCA protein Assay (Thermo Scientific). Samples were resolved in 3-8% Tris-Acetate protein gel under reducing condition. Proteins were transferred onto PVDF membrane (Millipore) and western blot analysis was performed using […] anti-Huntingtin antibody (Millipore #MAB2166), mouse anti-actin (Sigma, #A5316) and mouse anti-vinculin (Bio-Rad, #MCA465). Protein bands were quantified by Image J.
With a view to characterize the time course of HTT protein lowering and recovery and to better model the PK-PD relationship an extended time-course study was performed. BacHD mice received three weekly, oral doses of 24 mg/kg branaplam for three weeks. […]

HTT transcript = assay: In vitro evaluation in SH-SY5Y cells: HTT transcript by quantitative PCR; assay type: cell-based, human; details: 24 hours
Description: Cultured human neuroblastoma (SH-SY5Y cell line) cells were treated at doses ranging from 5 nM-125 nM for 24 hours (for transcript evaluation) or 48 hours (for protein evaluation). RNA was quantified by Nanodrop 2000 (Thermo Scientific). cDNAs were synthesized from 140-400 ng RNA using Maxima First strand cDNA synthesis kit using a mix of oligo dT and random hexamers (Thermo Scientific) in 20 uL reaction at 25° C. for 10 min, 50° C. for 15 min then 85° C. for 5 min. Quantitative PCR was performed using Taqman Fast Advanced master mix (Thermo Scientific) in 20 uL with 4 uL of cDNA reaction and primers specific for each genes. The PCR steps were as follows: 95° C. for 20 sec then 40 cycles of 95° C. for 1 sec, 55° C. for 20 sec. The sequence of primers were, for WT human HTT, forward, 5′-[…]-3′ (SEQ ID NO: 1); reverse, 5′-[…]-3′ (SEQ ID NO: 2) and sequence of probe was 56-FAM/TTG TGA AAT/ZEN/TCG TGG TGG CAA CCC/3IABKFQ/(SEQ ID NO: 8), for HTT novel exon, forward, 5′-[…]-3′ (SEQ ID NO: 3); reverse, 5′-[…]-3′ (SEQ ID NO: 4) and sequence of probe/56-FAM/AAT TCG TGG/ZEN/TGG CAA CCC TTG AGA/3IABKFQ/(SEQ ID NO: 7). Relative quantification of gene expression was performed using 2-AACT method. Fold changes in the mRNA expression level was calculated following normalization to […] glucuronidase beta (Gusb) as an endogenous reference (FIGS. 2a and 2b).

[3] = 24 mg/kg, 3 weeks, time after last dose

`CC1(C)CC(Oc2ccc(-c3ccc(-c4cn[nH]c4)cc3O)nn2)CC(C)(C)N1` [Compound 18, 5-(1H-pyrazol-4-yl)-2-(6-((2,2,6,6-tetramethylpiperidin-4-yl)oxy)pyridazin-3-yl)phenol] was tested, and the “time of maximum decrease of mutant HTT protein in the brain” value (mutant HTT protein [1]; BacHD mouse) was “about 72 h post dose”, the “IC50 (plasma concentration, inhibition of mutant HTT protein production)” value (mutant HTT protein [1]; popPD parameters (cortex), BacHD mouse) was 0.174 µg/mL and the Imax (mutant HTT protein [1]; popPD parameters (cortex)) was 1. For the same molecule, the “IC50 (plasma concentration, inhibition of mutant HTT protein production)” value (mutant HTT protein [1]; popPD parameters (striatum), BacHD mouse) was 0.0682 µg/mL, the Imax (mutant HTT protein [1]; popPD parameters (striatum)) was 1 and the “maximal HTT protein lowering (relative to vehicle)” value (mutant HTT protein [2]; 24 mg/kg oral three times weekly for 3 weeks, 72 h after last dose) was “approximately 45%”. The “mutant HTT protein, 1 week versus 3 weeks of dosing” value (mutant HTT protein [2]; 24 mg/kg oral, three times weekly) was “time-dependent lowering trend”, the “return of HTT protein to baseline, cortex” value (mutant HTT protein [2]; [3]) was 72 to 168 h and the “return of HTT protein to baseline, striatum” value (mutant HTT protein [2]; [3]) was 72 to 336 h. The “increase in novel-exon-containing HTT transcript” value (HTT transcript; 5 nM-125 nM) was 100-500 fold, the “lowering of total Huntingtin transcript” value (HTT transcript; 5 nM-125 nM) was 30-90 % of normal endogenous levels and the EC50 (HTT transcript; Homo sapiens, read-out: EC50 for lowering of HTT transcript) was 20 to 25 nM.
